Data from patent US7951954B2, “Bezothiazol derivatives as Beta2 adrenoreceptor agonists” (AstraZeneca AB, priority 2006, dated 2011).
Where a name gives a salt, the structure may show the parent alone. Read-outs that look alike come from different tables or passages of the source.

Legend:
[1] = biological target: T1, recombinant human α1D receptor (Homo sapiens, UniProt P25100); assay: Adrenergic α1D selectivity assay, [3H]-prazosin binding to HEK293 membranes; conditions: inhibition of [3H]-prazosin binding, HEK293 membranes with recombinant human α1D; read-out: α1D pEC50 (converted)
T1 construct: expressed in transfected cells; host or cells: HEK293
T1 sequence (P25100 1-572): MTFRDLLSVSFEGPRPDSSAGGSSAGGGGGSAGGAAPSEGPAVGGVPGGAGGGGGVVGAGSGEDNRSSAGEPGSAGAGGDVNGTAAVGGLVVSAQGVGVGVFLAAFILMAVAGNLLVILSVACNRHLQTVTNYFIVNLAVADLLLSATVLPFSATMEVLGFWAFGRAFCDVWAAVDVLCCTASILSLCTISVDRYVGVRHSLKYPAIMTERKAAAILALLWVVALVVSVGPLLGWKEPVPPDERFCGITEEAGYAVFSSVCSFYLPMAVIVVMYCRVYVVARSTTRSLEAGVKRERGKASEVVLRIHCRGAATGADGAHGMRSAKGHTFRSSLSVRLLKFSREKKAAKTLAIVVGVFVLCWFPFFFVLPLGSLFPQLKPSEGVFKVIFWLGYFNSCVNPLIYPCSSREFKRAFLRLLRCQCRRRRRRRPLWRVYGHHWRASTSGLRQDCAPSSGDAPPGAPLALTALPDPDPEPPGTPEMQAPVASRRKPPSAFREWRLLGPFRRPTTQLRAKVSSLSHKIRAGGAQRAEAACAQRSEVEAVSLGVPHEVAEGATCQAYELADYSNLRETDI
Description: (§1) These were diluted in Assay Buffer (50 mM HEPES, 1 mM EDTA, 0.1% gelatin, pH 7.4) to provide a final concentration of membranes that gave a clear window between maximum and minimum specific binding.
Assays were performed in U-bottomed 96-well polypropylene plates. […] For each assay plate 8 replicates were obtained for [^3H]-prazosin binding in the presence of 10 μL vehicle (10% (v/v) DMSO in Assay Buffer; defining maximum binding) or 10 μL BMY7378 (10 μM final concentration; defining non-specific binding (NSB)). Membranes were then added to achieve a final volume of 100 μL. The plates were incubated for 2 hours at room temperature and then filtered onto PEI coated GF/B filter plates, pre-soaked for 1 hour in Assay Buffer, using a 96-well plate Tomtec cell harvester. Five washes with 250 μL wash buffer (50 mM HEPES, 1 mM EDTA, pH 7.4) were performed at 4° C. to remove unbound radioactivity. The plates were dried then sealed from underneath using Packard plate sealers and MicroScint-O (50 μL) was added to each well. The plates were sealed (TopSeal A) and filter-bound radioactivity was measured with a scintillation counter (TopCount, Packard BioScience) using a 3-minute counting protocol.
(§2) Total specific binding (B0) was determined by subtracting the mean NSB from the mean maximum binding. NSB values were also subtracted from values from all other wells.

Adrenergic β2 = biological target: T2, Adrenergic β2 (Homo sapiens, UniProt P07550); assay: Adrenergic β2 mediated cAMP production in H292 cells (AlphaScreen cAMP detection); type: cell-based; conditions: for EC50: cAMP production in H292 cells, 300 μM rolipram, 10 minutes with compound, read-out: β2 pEC50 (converted)
T2 construct: endogenous in cells; host or cells: H292 cells
Description: Adrenergic β2 Mediated cAMP Production
H292 cells were grown in RPMI (Roswell Park Memorial Institute) medium containing, 10% (v/v) FBS (foetal bovine serum) and 2 mM L-glutamine. Cells were grown in 225 cm2 flasks containing 25 mL media in a humidified incubator at 37° C., 5% CO2. Cells were harvested from the flask and passaged at a 1 in 10 dilution once per week.
The media from flasks containing H292 cells was removed, rinsed with 10 mL PBS phosphate buffered saline) and replaced with 10 mL Accutase™ cell detachment solution. Flasks were incubated for 15 minutes in a humidified incubator at 37° C., 5% CO2. The cell suspension was counted and the cells re-suspended in RPMI media (containing 10% (v/v) FBS and 2 mM L-glutamine) at 0.05×10^6 cells per mL. 5000 cells in 100 μL were added to each well of a tissue-culture-treated 96-well plate and the cells incubated overnight in a humidified incubator at 37° C., 5% CO2. The culture media was removed, washed twice with 100 μL assay buffer and replaced with 50 μL assay buffer. Cells were rested at room temperature for 20 minutes after which time 25 μL of rolipram (1.2 mM made up in assay buffer containing 2.4% (v/v) dimethylsulphoxide) was added. Cells were incubated with rolipram for 10 minutes after which time test compounds (made up as ×4 concentrated stocks in assay buffer containing 4% (v/v) dimethylsulphoxide) were added and the cells were incubated for 10 minutes at room temperature. Final rolipram concentration in the assay was 300 μM and final vehicle concentration was 1.6% (v/v) dimethylsulphoxide. The reaction was stopped by removing supernatants, washing once with 100 μL assay buffer and replacing with 50 μL lysis buffer. The cell monolayer was frozen at −80° C. for 30 minutes (or overnight).
The concentration of cAMP (cyclic adenosine monophosphate) in the cell lysate was determined using the AlphaScreen™ methodology. The frozen cell plate was thawed for 20 minutes on a plate shaker then 10 μL of the cell lysate was transferred to a 96-well white plate. 40 μL of mixed AlphaScreen™ detection beads (containing equal volumes of donor beads (pre-incubated with biotinylated cAMP in the dark for 30 minutes) and acceptor beads), was added to each well and the plate incubated at room temperature for 10 hours in the dark. The AlphaScreen™ signal was measured using an EnVision spectrophotometer (Perkin-Elmer Inc.) with the recommended manufacturer's settings. cAMP concentrations were determined by reference to a calibration curve determined in the same experiment using standard cAMP concentrations (made up in lysis buffer in a 96-well tissue-culture-treated plate and frozen/thawed alongside the test samples) and detected using the same protocol. Concentration response curves for agonists were constructed to determine both the pEC50 and Intrinsic Activity.

[2] = biological target: T3, recombinant human adrenergic beta 1 receptors (Homo sapiens, UniProt P08588); assay: Adrenergic β1 selectivity assay, [125I]-Iodocyanopindolol binding to membranes; conditions: inhibition of [125I]-Iodocyanopindolol binding, read-out: β1 pEC50 (converted)
T3 construct: purchased Euroscreen
Description: as §1, with “Membranes containing recombinant human adrenergic beta 1 receptors were obtained from Euroscreen. These” for “These”, “EDTA, 120 mM NaCl,” for “EDTA,”
Assays were performed in U-bottomed 96-well polypropylene plates. 10 μL [^125I]-Iodocyanopindolol (0.036 nM final concentration) and 10 μL of test compound (10× final concentration) were added to each test well. For each assay plate 8 replicates were obtained for [^125I]-Iodocyanopindolol binding in the presence of 10 μL vehicle (10% (v/v) DMSO in Assay Buffer; defining maximum binding) or 10 μL Propranolol (10 μM final concentration; defining non-specific binding (NSB)). Membranes were then added to achieve a final volume of 100 μL. The plates were incubated for 2 hours at room temperature and then filtered onto PEI coated GF/B filter plates, pre-soaked for 1 hour in Assay Buffer, using a 96-well plate Tomtec cell harvester. Five washes with 250 μL wash buffer (50 mM HEPES, 1 mM EDTA, 120 mM NaCl, pH 7.4) were performed at 4° C. to remove unbound radioactivity. The plates were dried then sealed from underneath using Packard plate sealers and MicroScint-O (50 μL) was added to each well. The plates were sealed (TopSeal A) and filter-bound radioactivity was measured with a scintillation counter (TopCount, Packard BioScience) using a 3-minute counting protocol.
as §2

[3] = fraction relative to the maximum activity determined for formoterol in each experiment, H292 cells, cAMP

T3 sequence (P08588 whole entry): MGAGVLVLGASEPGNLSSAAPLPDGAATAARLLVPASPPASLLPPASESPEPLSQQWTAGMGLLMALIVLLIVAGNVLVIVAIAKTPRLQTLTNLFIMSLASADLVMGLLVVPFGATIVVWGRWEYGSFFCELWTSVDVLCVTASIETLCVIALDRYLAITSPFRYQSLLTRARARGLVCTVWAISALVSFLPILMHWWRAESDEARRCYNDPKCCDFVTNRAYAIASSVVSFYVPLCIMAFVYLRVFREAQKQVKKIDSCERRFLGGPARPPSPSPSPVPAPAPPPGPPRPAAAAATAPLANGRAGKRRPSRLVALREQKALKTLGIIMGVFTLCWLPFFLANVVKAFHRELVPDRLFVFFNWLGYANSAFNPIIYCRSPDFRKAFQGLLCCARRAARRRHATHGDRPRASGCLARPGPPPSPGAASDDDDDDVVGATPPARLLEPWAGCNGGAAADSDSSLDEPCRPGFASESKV
T2 sequence (P07550 whole entry): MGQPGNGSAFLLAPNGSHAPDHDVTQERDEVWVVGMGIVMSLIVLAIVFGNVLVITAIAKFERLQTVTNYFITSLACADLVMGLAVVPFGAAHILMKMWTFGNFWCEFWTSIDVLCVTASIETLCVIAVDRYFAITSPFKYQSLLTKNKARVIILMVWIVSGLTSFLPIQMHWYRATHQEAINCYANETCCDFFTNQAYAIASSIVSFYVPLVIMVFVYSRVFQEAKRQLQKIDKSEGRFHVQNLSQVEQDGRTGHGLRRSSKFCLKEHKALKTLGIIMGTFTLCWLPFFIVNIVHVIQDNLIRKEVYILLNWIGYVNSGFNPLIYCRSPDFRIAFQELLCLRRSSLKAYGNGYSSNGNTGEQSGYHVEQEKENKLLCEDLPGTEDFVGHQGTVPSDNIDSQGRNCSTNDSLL

O=c1[nH]c2c(O)ccc([C@@H](O)CNCCc3cccc(CN4CCCC4)c3)c2s1 [Example 51, 4-Hydroxy-7-{1R-hydroxy-2-[2-(3-pyrrolidin-1-ylmethyl-phenyl)-ethylamino]-ethyl}-3H-benzothiazol-2-one bis-hydrochloride salt]
EC50 [1]: 1000 nM | EC50 (Adrenergic β2): 1 nM | Intrinsic Activity (Adrenergic β2; [3]): 1.1 | EC50 [2]: 1260 nM

COCCNCc1cccc(CCNC[C@H](O)c2ccc(O)c3[nH]c(=O)sc23)c1 [Example 13, 4-Hydroxy-7-[1R-hydroxy-2-(2-{3-[(2-methoxy-ethylamino)-methyl]-phenyl}-ethylamino)-ethyl]-3H-benzothiazol-2-one di-hydrochloride salt]
EC50 [1]: 501 nM | Intrinsic Activity (Adrenergic β2): 1.0 | EC50 (Adrenergic β2): 2 nM | EC50 [2]: 158 nM

O=c1[nH]c2c(O)ccc([C@@H](O)CNCCc3cccc(CN[C@@H]4C[C@H]4c4ccc(F)cc4)c3)c2s1 [Example 10, 7-{2-[2-(3-{[2S-(4-Fluoro-phenyl)-cycloprop-1R-ylamino]-methyl}-phenyl)-ethylamino]-1R-hydroxy-ethyl}-4-hydroxy-3H-benzothiazol-2-one bis-trifluoroacetate salt]
EC50 [1]: 316 nM | EC50 (Adrenergic β2): 0.316 nM | Intrinsic Activity (Adrenergic β2; [3]): 1.0 | EC50 [2]: 200 nM

O=c1[nH]c2c(O)ccc([C@@H](O)CNCCc3cccc(CNCc4ccccn4)c3)c2s1 [Example 61, 4-Hydroxy-7-{1R-hydroxy-2-[2-(3-{[(pyridin-2-ylmethyl)-amino]-methyl}-phenyl)-ethylamino]-ethyl}-3H-benzothiazol-2-one bis-hydrochloride salt]
EC50 [1]: 316 nM | Intrinsic Activity (Adrenergic β2): 0.9 | EC50 [2]: 79.4 nM

O=c1[nH]c2c(O)ccc([C@@H](O)CNCCc3ccc(CNCCc4ccccn4)cc3)c2s1 [Example 22, 4-Hydroxy-7-[1R-hydroxy-2-(2-{4-[(2-(2-pyridyl)ethylamino)methyl]phenyl}-ethylamino)ethyl]-3H-benzothiazol-2-one tris-trifluoroacetate salt]
EC50 [1]: 25.1 nM | Intrinsic Activity (Adrenergic β2): 1.0 | EC50 [2]: 794 nM

COc1ccccc1CNCc1cccc(CCNC[C@H](O)c2ccc(O)c3[nH]c(=O)sc23)c1 [Example 36, 4-Hydroxy-7-[1R-hydroxy-2-(2-{3-[(2-methoxy-benzylamino)-methyl]-phenyl}-ethylamino)-ethyl]-3H-benzothiazol-2-one bis-trifluoroacetate salt]
EC50 [1]: 200 nM | Intrinsic Activity (Adrenergic β2): 0.8 | EC50 [2]: 50.1 nM

O=c1[nH]c2c(O)ccc([C@@H](O)CNCCc3cccc(CN4CCOCC4)c3)c2s1 [Example 72, 4-Hydroxy-7-{1R-hydroxy-2-[2-(3-morpholin-4-ylmethyl-phenyl)-ethylamino]-ethyl}-3H-benzothiazol-2-one bis-hydrochloride salt]
EC50 [1]: 398 nM | EC50 (Adrenergic β2): 1 nM | Intrinsic Activity (Adrenergic β2; [3]): 0.9 | EC50 [2]: 100 nM

O=c1[nH]c2c(O)ccc([C@@H](O)CNCCc3cccc(CNCCc4cccc[n+]4[O-])c3)c2s1 [Example 40, 4-Hydroxy-7-{1R-hydroxy-2-[2-(3-{[2-(1-oxy-pyridin-2-yl)-ethylamino]-methyl}-phenyl)-ethylamino]-ethyl}-3H-benzothiazol-2-one bis-trifluoroacetate salt]
EC50 [1]: 100 nM | EC50 (Adrenergic β2): 2.51 nM | Intrinsic Activity (Adrenergic β2; [3]): 0.8 | EC50 [2]: 39.8 nM

O=c1[nH]c2c(O)ccc([C@@H](O)CNCCc3cccc(CNCCc4c(Cl)cccc4Cl)c3)c2s1 [Example 1, 7-{2-[2-(3-{[2-(2,6-Dichloro-phenyl)-ethylamino]-methyl}-phenyl)-ethylamino]-1R-hydroxy-ethyl}-4-hydroxy-3H-benzothiazol-2-one bis-trifluoroacetate salt]
EC50 [1]: 63.1 nM | Intrinsic Activity (Adrenergic β2; [3]): 0.8 | EC50 [2]: 12.6 nM

CC(Cc1cccc(CNCCc2c(Cl)cccc2Cl)c1)NC[C@H](O)c1ccc(O)c2[nH]c(=O)sc12 (stereo partly drawn) [Example 15, 7-{2-[2-(3-{[2-(2,6-Dichloro-phenyl)-ethylamino]-methyl}-phenyl)-1-methyl-ethylamino]-1R-hydroxy-ethyl}-4-hydroxy-3H-benzothiazol-2-one bis-trifluoroacetate salt]
EC50 [1]: 39.8 nM | Intrinsic Activity (Adrenergic β2): 0.8 | EC50 [2]: 15.8 nM

O=c1[nH]c2c(O)ccc([C@@H](O)CNCCc3cccc(CN4CCCCCC4)c3)c2s1 [Example 71, 7-{2-[2-(3-Azepan-1-ylmethyl-phenyl)-ethylamino]-1R-hydroxy-ethyl}-4-hydroxy-3H-benzothiazol-2-one bis-hydrochloride salt-]
EC50 [1]: 31.6 nM | EC50 (Adrenergic β2): 0.794 nM | Intrinsic Activity (Adrenergic β2; [3]): 0.9 | EC50 [2]: 398 nM

CC(C)OCCCNCc1cccc(CCNC[C@H](O)c2ccc(O)c3[nH]c(=O)sc23)c1 [Example 64, 4-Hydroxy-7-[1R-hydroxy-2-(2-{3-[(3-isopropoxy-propylamino)-methyl]-phenyl}-ethylamino)-ethyl]-3H-benzothiazol-2-one bis-hydrochloride salt]
EC50 [1]: 398 nM | EC50 (Adrenergic β2): 0.794 nM | Intrinsic Activity (Adrenergic β2; [3]): 0.8 | EC50 [2]: 501 nM
